Laboratory results from patent US20250134870A1, “PATHWAY MODULATOR, PHARMACEUTICAL COMPOSITION HAVING SAME, USE THEREOF, AND THERAPEUTIC METHOD USING SAME” (Jiangsu Yahong Meditech Co., Ltd., priority 2021, published 2025).
Where two headings read alike, the source gives them in different places.

How the values were obtained:
[1] = tested on: 2,4-dinitrobenzenesulfonic acid (DNBS)-induced colitis; test: DNBS-induced colitis in rats: macroscopic evaluation of colon on Day 7 (colon length, weight, ulcer area, CW/CL, CW/BW, CW/CL/BW); format: in vivo, Wistar rats; conditions: for inhibition at 9 mg/kg: Rattus norvegicus, 168 h
Protocol: (3) Colon observation: after the end of the experiment, all animals were anesthetized with Zoletil (intravenous injection, 25 mg/kg) and the abdominal cavity was opened. Blood was collected from the abdominal aorta with EDTA anticoagulation (centrifugation conditions: 4° C., 2,000 g, 10 min). After the animals were sacrificed by bloodletting, the colon (from the cecum to the anus) was dissected and the colon length was measured immediately. The colon was longitudinally incised and rinsed until clean. Then the colon weight and ulcer area were recorded, and the colon was photographed as a whole and divided into three parts, among which two parts were stored at −80° C. after flash freezing with liquid nitrogen for MPO and cytokine detection, and the other part of colon was fixed with 10% neutral buffered formalin. If the ulcer was irregularly shaped, it could be considered as rectangular, and then its length and width were measured for ulcer area assessment. Ulcer area (cm^2)=ulcer length (cm)×ulcer width (cm).

[2] = tested on: 2,4-dinitrobenzenesulfonic acid (DNBS)-induced colitis; test: DNBS-induced enteritis/colitis in rats: body weight and stool score (Example 10); format: in vivo, Wistar rats; conditions: positive control drug
Protocol: The 90 animals were randomly grouped on Day-1 (i.e., the day before the experiment) based on animal body weight to ensure that the body weight of each group of animals were similar, so as to reduce bias. Rats were fasted for 40 hours before the experiment and were injected subcutaneously with 5% glucose saline (10 mL/kg, once daily) during fasting. • Experimental grouping:
On Day 1 of the experiment, fasting rats were anesthetized by intraperitoneal injection with Zoletil (25 mg/kg Tiletamine and 25 mg/kg Zolazepam) and 5 mg/kg Xylazine.
In groups G2-G6, a hose was inserted from the anus to left colic flexure (about 8 cm from the anus) and colitis was induced by DNBS enema (0.5 mL/animal) in rats. The normal control group (G1) received 30% ethanol enema by the same process. The head of the animal after enema was lowered for 15 min, and then the animal was kept in Trendelenburg position until waked to avoid backflow of the enema fluid.
The percentage of body weight was calculated according to the following formula: (body weight on Day X-initial weight)/initial weight]×100%.
(2) Stool score: during the experiment, the stool state of rats was scored daily (0=normal, 1=wet/sticky, 2=loose, 3=liquid).

[3] = tested on: 2,4-dinitrobenzenesulfonic acid (DNBS)-induced colitis; test: DNBS-induced colitis in rats: pathological score of colon tissue (H&E); format: in vivo, Wistar rats
From the text: The proximal, ulcer (corresponding sites can be taken, if there was no ulcer) and distal parts of the colon tissue fixed by neutral buffered formalin were embedded with paraffin, sectioned (thickness 5 μm), and histopathological score was given by H&E staining.

[4] = tested on: mesenteric lymph node immune cell subpopulations; test: Flow cytometry of immune cell subpopulations and cytokines in mesenteric lymph nodes of DSS colitis mice (Examples 2, 4); format: in vivo, C57BL/6J mice; conditions: 100 mg/kg PO QD × 8 days (Test group 7#) vs solvent group
Protocol: The experimental endpoint was 24 hours after administration on Day 8 for the positive drug control group and the Test group 1 #to Test group 7 #of Example 1; the experimental endpoint of the normal group and the solvent group was the same as that of the positive drug control group and Test group 1 #to Test group 7 #.
At the experimental endpoint, mesenteric lymphatic nodes were collected and treated as follows:
1) The mesenteric lymph nodes were gently grinded and filtered with a […] strainer (BD bioscience, Catalog No. 352350) to obtain a cell suspension, and the cells were counted.
2) The cells were suspended in a suspension solution (the suspension solution was prepared by the following process: diluting the cell activation mixture with a mixture of 90 v % 1640 medium and 10 v % fetal bovine serum to a concentration of 1×), the cell density was adjusted to 2.5×10^7/mL, and the cells were incubated at 37° C. for 5 hours. 3) The cells were washed with Dulbecco's Phosphate Buffered Saline, and stained with viable/dead stain (stain No. 12 in Table 5) at room temperature for 15 min to distinguish between viable cells and dead cells; the cells were washed with staining buffer (prepared by mixing fetal bovine serum and Dulbecco's Phosphate Buffered Saline at a volume ratio of 2:98), Fc block working solution (prepared by mixing Fc block and staining buffer at a volume ratio of 1:200) was added, and the cells were incubated at room temperature for 15 minutes.
4) The cells were surface labeled with 100 μL of antibody staining solution for flow cytometry without washing and incubated at 4° C. for 30 minutes.
5) The cells were washed once with staining buffer, 100 μL of cell fixative solution was added, and the cells were incubated at 4° C. overnight.
6) 200 μL of cell permeabilization solution was added and incubated at 4° C. for 30 minutes.
7) After washing with 250 μL of cell permeabilization solution, the cells were suspended with 100 μL of staining buffer and fluorescence was detected with a BD LSRFortessa instrument.
8) The cell subpopulations analyzed by flow cytometry included CD4+ T cell subpopulation, IL-17A+CD4+ T cell subpopulation, IFN-γ+CD4+ T cell subpopulation, TNF-α+CD4+ T cell subpopulation, CD25+FOXP3+ Treg cell subpopulation; CD8+ T cell subpopulation, IL-17A+CD8+ T cell subpopulation, IFN-γ+CD8+ T cell subpopulation, TNF-α+CD8+ T cell subpopulation; CD69+B220+ B cell subpopulation and NK1.1+CD107a+ NK cell subpopulation.

[5] = tested on: dextran sulfate sodium (DSS)-induced colitis; test: DSS-induced colitis in mice: body weight, DAI score, colon density (Examples 1, 3); format: in vivo, C57BL/6J mice; conditions: for severity of DSS-induced colitis and disease activity: Nepicastat 30, Etamicastat 100, Zamicastat 100 mg/kg PO QD × 8 days (Test groups 1#, 4#, 7#) vs solvent group; for Colon density: experimental endpoint
Protocol: 8-10 week old female C57BL/6J mice purchased from Charles River Laboratories were used. The mice were housed in a room at constant temperature (20+2° C.) (5 mice per cage) with a 12-hour light-dark cycle. All protocols were approved by the Institutional Animal Care and Use Committee of WuXi AppTec. These mice were adapted to the housing conditions at the animal experiment center of WuXi AppTec for at least three days prior to the experiment. […] At the experimental endpoint (see hereinafter), mice were euthanized and endpoint samples were obtained. Mice in the normal group were not given 3% DSS aqueous solution to induce colitis and were free to drink blank water. […] The animal body weight and DAI score were assessed under double-blind conditions, that is, the researchers collected the body weight data of mice and observed and scored the stool characteristics and blood stools every day, without knowing the group and dosing regimen. The DAI score was the sum of the weight loss score, stool score and bleeding score. […] The data were analyzed by analysis of variance, specifically by using the following process: using Graph Pad Prism 6.0 software to carry out post-hoc Dunnett's multiple comparison test. […] Data were expressed as mean±S.E.M. The experimental endpoint was 24 hours after administration on Day 8 for the positive drug control group and the Test group 1 #to Test group 7 #of Example 1; the experimental endpoint of the normal group and the solvent group was the same as that of the positive drug control group and Test group 1 #to Test group 7 #.

[6] = tested on: norepinephrine level; conditions: cited from earlier work; for brain-blood-barrier penetration: compared with Nepicastat; for effect on brain tissue (norepinephrine level) / norepinephrine level in peripheral sympathetic innervation tissues: rats with spontaneous hypertension
[7] = 1200 mg; 10 consecutive days; NCT02151994; cited from earlier work
[8] = tested on: systolic and diastolic blood pressure; conditions: 200 mg, phase II clinical study, cited from earlier work

C[C@]12C=CC(=O)C=C1CC[C@@H]1[C@@H]2C(=O)C[C@@]2(C)[C@H]1CC[C@]2(O)C(=O)CO [Prednisone]
inhibition at 9 mg/kg ([1]; G3, 9 mg/kg PO QD × 7, read-out: IR1 (inhibition rate 1, CW/CL/BW)): 44.2%
inhibition at 9 mg/kg ([1]; G3, 9 mg/kg PO QD × 7, read-out: IR2 (inhibition rate 2, CW/BW)): 50.1%
inhibition at 9 mg/kg ([1]; G3, 9 mg/kg PO QD × 7, read-out: IR3 (inhibition rate 3, CW/CL)): 46.5%
BW ([1]; mean, G3, 9 mg/kg PO QD × 7): 162.92 g
CW/BW ×100 ([1]; mean, G3, 9 mg/kg PO QD × 7): 0.99
Ulcer area ([1]; mean, G3, 9 mg/kg PO QD × 7): 1.26 cm^2
Ulcer length ([1]; mean, G3, 9 mg/kg PO QD × 7): 0.77 cm
Ulcer width ([1]; mean, G3, 9 mg/kg PO QD × 7): 0.85 cm
colon weight ([1]; positive control drug): significantly reduce
stool form score AUC [2]: significantly reduce
Pathological score, Distal end, Damage ([3]; mean, G3, 9 mg/kg PO QD × 7): 1.33
Pathological score, Distal end, Inflammation ([3]; mean, G3, 9 mg/kg PO QD × 7): 2.00
Pathological score, Proximal end, Damage ([3]; mean, G3, 9 mg/kg PO QD × 7): 0.80
Pathological score, Proximal end, Inflammation ([3]; mean, G3, 9 mg/kg PO QD × 7): 1.73
Pathological score, Total score, Damage ([3]; mean, G3, 9 mg/kg PO QD × 7): 4.00
Pathological score, Total score, Inflammation ([3]; mean, G3, 9 mg/kg PO QD × 7): 6.07
Pathological score, Ulcer end, Damage ([3]; mean, G3, 9 mg/kg PO QD × 7): 1.87
Pathological score, Ulcer end, Inflammation ([3]; mean, G3, 9 mg/kg PO QD × 7): 2.33
inflammatory cell infiltration score of colon ulcer end ([3]; positive control drug): significantly reduce

Fc1cc(F)c2c(c1)C[C@@H](n1c(CCNCc3ccccc3)c[nH]c1=S)CO2 [Zamicastat]
proportion of CD4+ T cell subpopulation [4]: reduce the proportion
proportion of CD25+FOXP3+ Treg cell subpopulation [4]: increase the proportion
secretion of IFN-γ by CD4+ T cell subpopulation [4]: reduce the secretion
secretion of IL-17A by CD4+ T cell subpopulation [4]: reduce the secretion
secretion of TNF-α by CD4+ T cell subpopulation [4]: reduce the secretion
Body weight on Day 7, g ([5]; 10 mg/kg PO QD × 8 days): 19.26 g
Body weight on Day 7/initial body weight, % ([5]; 10 mg/kg PO QD × 8 days): 91.68%
Body weight on Day 8, g ([5]; 10 mg/kg PO QD × 8 days): 18.37 g
Body weight on Day 8/initial body weight, % ([5]; 10 mg/kg PO QD × 8 days): 87.45%
DAI score on Day 8 ([5]; 10 mg/kg PO QD × 8 days): 6.30
Body weight on Day 7, g ([5]; 30 mg/kg PO QD × 8 days): 18.96 g
Body weight on Day 7/initial body weight, % ([5]; 30 mg/kg PO QD × 8 days): 91.04%
Body weight on Day 8, g ([5]; 30 mg/kg PO QD × 8 days): 17.78 g
Body weight on Day 8/initial body weight, % ([5]; 30 mg/kg PO QD × 8 days): 85.35%
DAI score on Day 8 ([5]; 30 mg/kg PO QD × 8 days): 6.30
Body weight on Day 7, g ([5]; 100 mg/kg PO QD × 8 days): 19.66 g
Body weight on Day 8, g ([5]; 100 mg/kg PO QD × 8 days): 18.75 g
Body weight on Day 8/initial body weight, % ([5]; 100 mg/kg PO QD × 8 days): 89.17%
DAI score on Day 8 ([5]; 100 mg/kg PO QD × 8 days): 5.20
severity of DSS-induced colitis and disease activity [5]: ameliorated the severity of DSS-induced colitis and reduced disease activity
Colon density ([5]; 10 mg/kg PO QD × 8 days): 35.04 mg/cm
Colon density ([5]; 30 mg/kg PO QD × 8 days): 36.37 mg/cm
brain-blood-barrier penetration [6]: lower levels of brain-blood-barrier penetration
effect on brain tissue (norepinephrine level) [6]: no effect on brain tissue
norepinephrine level in peripheral sympathetic innervation tissues [6]: reduce the norepinephrine level in peripheral sympathetic innervation tissues
safety [7]: relatively good safety

NCCc1c[nH]c(=S)n1[C@H]1COc2c(F)cc(F)cc2C1 [Etamicastat]
tolerance and safety ([8]; 10 days of treatment): good tolerance and safety
systolic and diastolic blood pressure ([8]; after 10 days of treatment): reduced systolic and diastolic blood pressure in a dose-dependent manner
Body weight on Day 7, g ([5]; 10 mg/kg PO QD × 8 days): 19.18 g
Body weight on Day 7/initial body weight, % ([5]; 10 mg/kg PO QD × 8 days): 91.92%
Body weight on Day 8, g ([5]; 10 mg/kg PO QD × 8 days): 18.20 g
Body weight on Day 8/initial body weight, % ([5]; 10 mg/kg PO QD × 8 days): 87.27%
DAI score on Day 8 ([5]; 10 mg/kg PO QD × 8 days): 6.20
Body weight on Day 7, g ([5]; 30 mg/kg PO QD × 8 days): 19.48 g
Body weight on Day 7/initial body weight, % ([5]; 30 mg/kg PO QD × 8 days): 92.19%
Body weight on Day 8, g ([5]; 30 mg/kg PO QD × 8 days): 18.89 g
Body weight on Day 8/initial body weight, % ([5]; 30 mg/kg PO QD × 8 days): 89.13%
DAI score on Day 8 ([5]; 30 mg/kg PO QD × 8 days): 6.56
Body weight on Day 7, g ([5]; 100 mg/kg PO QD × 8 days): 20.08 g
Body weight on Day 8, g ([5]; 100 mg/kg PO QD × 8 days): 19.19 g
Body weight on Day 8/initial body weight, % ([5]; 100 mg/kg PO QD × 8 days): 91.63%
DAI score on Day 8 ([5]; 100 mg/kg PO QD × 8 days): 5.00
severity of DSS-induced colitis and disease activity [5]: ameliorated the severity of DSS-induced colitis and reduced disease activity
Colon density ([5]; 10 mg/kg PO QD × 8 days): 32.24 mg/cm
Colon density ([5]; 30 mg/kg PO QD × 8 days): 34.23 mg/cm
brain-blood-barrier penetration [6]: lower levels of brain-blood-barrier penetration
effect on brain tissue (norepinephrine level) [6]: no effect on brain tissue
norepinephrine level in peripheral sympathetic innervation tissues [6]: reduce the norepinephrine level in peripheral sympathetic innervation tissues
